Assay results published in patent publication US20190382827A1, “USE OF MICROBIAL METABOLITES FOR TREATING DISEASES” (Yeda Research and Development Co. Ltd., priority 2015, published 2019).

Legend:
NLRP6 inflammasome = assay: Colon explants cultured with metabolites (IL-18 ELISA, caspase-1 immunoblot, gene expression); type: cell-based, mouse; details: colon explants incubated for 24 hrs, compared with spermine
Description: Colons were excised and washed thoroughly with PBS, homogenized in RIPA buffer containing protease inhibitors, incubated for 20 min in 4° C. and centrifuged for 20 min, 14,000 rpm at 4° C. Samples were separated on 15% acrylamide gels and transferred onto nitrocellulose membranes. Western blot analysis was performed using anti-caspase 1 p20 polyclonal antibody (Adipogen, AG-20B-0042B-C100) and Goat anti mouse antibody (Jackson ImmunoResearch, 115-035-003). Band density was calculated using ImageJ software. Colon pieces, 0.5 cm long, from the proximal colon were removed, rinsed with PBS, and weighed. The tissue explants were cultured for 24 hrs in DMEM medium containing 10% FBS, L-glutamine, penicillin, and streptomycin at 37° C. Culture medium was collected, centrifuged and the resulting supernatant stored in aliquots at -20° C. Concentrations of IL-18 in the serum or culture supernatants were measured using ELISA. […] Samples were then washed and plates were incubated with anti-mouse IL-18-biotin antibody ([…]-6 MBL) for 1 hour and HRP-Avidin (BioLegend) for 1 hour before quantification. […] For AMP induction in-vitro, 3 μg IL-18 were added to colon explants for 7 hours, then the explants were maintained in RNAlater and RNA was extracted. Tissues were preserved in RNAlater solution (Ambion) and subsequently homogenized in Tri Reagent (Fox et al.). RNA was purified according to the manufacturer's instructions. Two microgram of total RNA was used to generate cDNA (HighCapacity cDNA Reverse Transcription kit; Applied Biosystems). RealTime-PCR was performed using gene-specific primer/probe sets (Applied Biosystems) and Kapa Probe Fast qPCR kit (Kapa Biosystems) on a Viia7 instrument (Applied Biosystems). PCR conditions were 95° C. for 20 s, followed by 40 cycles of 95° C. for 3 s and 60° C. for 30 s. Data were analyzed using the deltaCt method with hprt serving as the reference housekeeping gene.

colonic AMPs [1] = assay: IL-18 added to germ-free colon explants, AMP induction in-vitro; type: cell-based, mouse; details: GF colon explants, sterile conditions
Description: Colon explants were incubated with 70 mM of taurine (Sigma Aldrich, T0625), histamine (Sigma Aldrich, H7125) or spermine (Sigma Aldrich, S3256) for 24 hours. For AMP induction in-vitro, 3 μg IL-18 were added to colon explants for 7 hours, then the explants were maintained in RNAlater and RNA was extracted.
(§1) Tissues were preserved in RNAlater solution (Ambion) and subsequently homogenized in Tri Reagent (Fox et al.). RNA was purified according to the manufacturer's instructions. Two microgram of total RNA was used to generate cDNA (HighCapacity cDNA Reverse Transcription kit; Applied Biosystems). RealTime-PCR was performed using gene-specific primer/probe sets (Applied Biosystems) and Kapa Probe Fast qPCR kit (Kapa Biosystems) on a Viia7 instrument (Applied Biosystems). PCR conditions were 95° C. for 20 s, followed by 40 cycles of 95° C. for 3 s and 60° C. for 30 s. Data were analyzed using the deltaCt method with hprt serving as the reference housekeeping gene.

intestinal microbiota = assay: In-vivo injection of recombinant IL-18, 16S microbiota analysis; parameters: species or system mouse
Description: (§2) For IL-18 rescue experiments, recombinant IL-18 (MBL, Cat#B004-2) was injected intraperitoneally at a concentration of 1 μg per mouse for 5 days, and not injected for 2 days prior to DSS treatment. IL-18 injection to Swiss Webster germ-free mice and Nlrp6^−/− mice was performed twice a day for 3 days, while the mice were kept sterile using a cage-autonomous system (Hecht et al., 2014).
Frozen fecal samples were processed for DNA isolation using the MoBio PowerSoil kit according to the manufacturer's instructions. For the 16S rRNA gene PCR amplification, ing of the purified fecal DNA was used for PCR amplification. Amplicons spanning the variable region 1/2 (V1/2) of the 16S rRNA gene were generated by using the following barcoded primers: Fwd 5′-XXXXXXXXAGAGTTTGATCCTGGCTCAG-3′ (SEQ ID NO: 1), Rev 5′-TGCTGCCTCCCGTAGGAGT-3′ (SEQ ID NO: 2), where X represents a barcode base. The reactions were subsequently pooled and cleaned (PCR clean kit, Promega), and the PCR products were then sequenced on an Illumina MiSeq in 500 bp paired-end method. The reads were then processed using the QIIME (Quantitative Insights Into Microbial Ecology, www(dot)qiime(dot)org) analysis pipeline as described (Caporaso et al., 2010; Elinav et al., 2011). In brief, fasta quality files and a mapping file indicating the barcode sequence corresponding to each sample were used as inputs, reads were split by samples according to the barcode, taxonomical classification was performed using the RDP-classifier, and an OTU table was created. Closed-reference OTU mapping was employed using the Greengenes database. Rarefaction was used to exclude samples with insufficient count of reads per sample. Sequences sharing 97% nucleotide sequence identity in the V2 region were binned into operational taxonomic units (97% ID OTUs). For beta-diversity, weighted unifrac measurements were plotted according to the two principal coordinates based on 1,000 reads per sample. The OTU tables used for our analyses are made accessible online.

colonic AMPs [2] = assay: In-vivo injection of recombinant IL-18, colonic IL-18 and AMP levels; parameters: species or system mouse
Description: as §2
Concentrations of IL-18 in the serum or culture supernatants were measured using ELISA. Plates were coated over night with IL-18 (MBL, B004-2), incubated for 4 hours with supernatant or serum. Samples were then washed and plates were incubated with anti-mouse IL-18-biotin antibody (D048-6 MBL) for 1 hour and HRP-Avidin (BioLegend) for 1 hour before quantification.
as §1

DSS colitis = assay: DSS colitis; type: in vivo, mouse; details: Asc-/- mice, IL-18 i.p. prior to induction of DSS colitis
Description: as §2
Mice were treated with 1.5% (w/v) DSS (M.W.=36,000-50,000 Da; MP Biomedicals) in their drinking water for 7 days followed by regular access to water. The animals were weighed daily and monitored for signs of distress as well as rectal bleeding.
For DSS rescue experiments, mice were receiving taurine in the drinking water prior to DSS treatment in a concentration of 100 mg/ml for 14 days.
Colonoscopy was performed using a high-resolution mouse video endoscopic system (Carl Storz, Tuttlingen, Germany). The severity of colitis was blindly scored using MEICS (Murine Endoscopic Index of Colitis Severity), which is based on five parameters: granularity of mucosal surface; vascular pattern; translucency of the colon mucosa; visible fibrin; and stool consistency (Becker et al., 2006).
On the day of the assay, 4 kDa fluorescein isothiocyanate (FITC)-dextran was dissolved in phosphate buffered saline (PBS) to a concentration of 80 mg ml^−1. Mice were fasted for 4 hours prior to gavage with 150 μl dextran. Mice were anesthetized 3 hours following gavage and blood was collected, centrifuged at 1,000×g for 12 min at 4° C. Serum was collected and fluorescence was quantified at an excitation wavelength of 485 nm and 535 nm emission wavelength.
DNA was extracted from liver samples (using MoBio PowerSoil kit). DNA concentration was calculated using a standard curve of known DNA concentrations from E. coli K12. 16S qPCR using primers identifying different regions of the V6 16S gene was performed using Kappa SYBR fast mix.
Absolute number of bacteria in the samples was then approximated as DNA amount in a sample/DNA molecule mass of bacteria.

microbiota = assay: Ang4 in-vitro culture of stool microbiota under anaerobic conditions; parameters: species or system mouse
Description: Murine Ang4 was expressed in E. coli and purified as previously described (Holloway et al, 2001). Stool pellets were collected and cultured in anaerobic conditions for 8 hours with rAng4, centrifuged and further analyzed using 16S rRNA sequencing.
Frozen fecal samples were processed for DNA isolation using the MoBio PowerSoil kit according to the manufacturer's instructions. For the 16S rRNA gene PCR amplification, ing of the purified fecal DNA was used for PCR amplification. […] The reads were then processed using the QIIME (Quantitative Insights Into Microbial Ecology, www(dot)qiime(dot)org) analysis pipeline as described (Caporaso et al., 2010; Elinav et al., 2011). In brief, fasta quality files and a mapping file indicating the barcode sequence corresponding to each sample were used as inputs, reads were split by samples according to the barcode, taxonomical classification was performed using the RDP-classifier, and an OTU table was created. […] Rarefaction was used to exclude samples with insufficient count of reads per sample. […] For beta-diversity, weighted unifrac measurements were plotted according to the two principal coordinates based on 1,000 reads per sample. […]

[3] = GF Nlrp6-/- mice, sterile administration
[4] = mice lacking NLRP6, ASC, or caspase-1/11

## NCCCCN [putrescine]
NLRP6 inflammasome
  IL-18 in colon explants: equally suppressed

## IL-18: recombinant IL-18 (MBL, Cat#B004-2)
Colonic AMPs [1]
  levels of colonic AMPs: restored normal levels
Intestinal microbiota; Asc- and Caspase-1/11-deficient mice
  microbiota configuration: significant configuration changes
Intestinal microbiota; Caspase-1/11-/- mice
  aberrant microbiota composition, beta- and alpha-diversity: corrected
Intestinal microbiota; Caspase-1/11-/- mice, relative to WT levels
  abundance of multiple commensal bacteria: restored
Intestinal microbiota; Nlrp6-/- mice
  microbial community composition: marked compositional changes
Intestinal microbiota; WT mice
  microbiota composition: not affected
Intestinal microbiota; WT recipients cohoused with inflammasome-deficient mice
  dominant transmission of the dysbiotic microbiota configuration: prevented
Intestinal microbiota; grWT(Asc-/-) mice injected with IL-18
  UniFrac distance to cohousing partners: increased
Colonic AMPs [2]; [3]
  Ang4: induced
  defect in secretion of mature IL-18 protein: rescued this defect
Colonic AMPs [2]; WT GF mice, in-vivo administration
  levels of colonic AMPs: restored normal levels
Colonic AMPs [2]; [4]
  AMP levels: restored
  IL-18 levels: restored
DSS colitis
  colitis severity: diminished
  colonoscopy score: improved
  weight loss: reduced

B1: Ang4: Murine Ang4 expressed in E. coli and purified; antimicrobial peptide (protein, UniProt Q3TMQ6 25-144, looked up)
Angiogenin-4: QNERYEKFLRQHYDAKPNGRDDRYCESMMKERKLTSPCKDVNTFIHGTKKNIRAICGKKGSPYGENFRISNSPFQITTCTHSGASPRPPCGYRAFKDFRYIVIACEDGWPVHFDESFISP
microbiota; anaerobic in-vitro microbiome cultures of Asc-/- mice
  beta- and alpha-diversity: partially restored
microbiota; microbiota from Asc-/- mice compared with WT mice
  impact on overall community composition: greater
